Data published in patent publication US12312346B2, “Pyridopyrimidine compounds and methods of their use” (Tufts Medical Center, Inc., priority 2018, dated 2025).

What was measured:
[1] = tested on: phosphorylated pRB at SER-780 in HELA cells; test: Immunoblot of phosphorylated pRB (SER-780), HELA; format: cell-based
Method: FIG. 5E is an image of a representative immunoblot showing the levels of phosphorylated pRB at SER-780 in HELA cells following treatment of these cells with a vehicle, PD, or compound GD for 24 hours. Tubulin was used as loading control.
(§1) Table 2: Experimental Procedures: sensitivity to CDK6 kinase activity inhibition was tested by incubating different cell lines in the presence of CDK6 inhibitor GD007/PBS for either 24 hours for detecting the status of pRB-780 phosphorylation, or 5 days for determining the effect of GD007 on cell proliferation. (1) By immunoblotting (WB), we will detect phospho-pRB-S^780, one of the substrates of CDK6 kinase; (2) By using FACS analysis, we will stain treated cells with Propidium Iodide (PI), a commonly used fluorescent intercalator, to measure the subpopulation of cell cycle to reveal any impact of CDK6 inhibition on cell proliferation; (3) cell numbers will be counted using hemocytometer.

[2] = tested on: CDK6^−/− SVFs (KO-SVFs); test: Cell number, KO-SVFs; format: cell-based, mouse; details: 6 days; GD 0.1-10 μM
Method: FIG. 7B is a bar graph showing the cell numbers of KO-SVFs treated with LEE (10 μM) or compound GD at 0.1, 0.5, 1.0, 5.0, and 10 μM for 6 days. Data shown are mean±S.D. (n=6); *P<0.05 vs its vehicle control, t-test.
(§2) HCl salt of 6-acetyl-5-methyl-2-((4-(piperazin-1-ylmethyl)thiazol-2-yl)amino)pyrido[2,3-d]pyrimidin-7(8H)-one (Compound GD) prepared in Example 1 was examined for its inhibitory activity in cancer cell lines and WT and CDK6^−/− mouse embryonic fibroblasts (MEFs) and stromal vascular fractions (SVFs). MEFs and SVFs are enriched with mesenchymal stem cells (MSC) and pre-adipocytes which can differentiate into a variety of cell types, including adipocytes.

[3] = tested on: Prostate Cancer: DU145; test: pRB-780 immunoblot, DU145; format: cell-based; details: WB: P-RB-780
Method: as §1

[4] = tested on: mouse WT SVFs; test: Cell number, WT-SVFs; format: cell-based; details: 6 days; GD 0.1-10 μM
Method: FIG. 7A is a bar graph showing the cell numbers of WT-SVFs treated with LEE (10 μM) or compound GD at 0.1, 0.5, 1.0, 5.0, and 10 μM for 6 days. Data shown are mean±S.D. (n=6); *P<0.05 vs its vehicle control, t-test.
as §2

[5] = tested on: Breast Cancer: MCF-7; test: PI staining and pRB-780 immunoblot, MCF-7; format: cell-based; details: PI staining and WB: P-RB-780
Method: as §1

[6] = tested on: human leukemia cell line HPBALL (with Notch1 mutations); test: Cell cycle (PI staining, S-G2-M cells) and cell number, HPBALL; format: cell-based
Method: FIG. 1A is a series of charts showing representative cell cycle profiles of human leukemia cell line HPBALL (with Notch1 mutations) treated with a vehicle (V) (for ribociclib (LEE) or compound GD) or LEE or compound GD for 6 days at 1, 5, 10, and 20 μM.
FIG. 1B is a histogram summarizing the cell cycle distribution of the HPBALL cell line treated with compound GD, as described for FIG. 1A. Data shown are mean±S.D. (n=6); *P<0.05 vs its vehicle controls, t-test.
FIG. 1C is a histogram summarizing the cell cycle distribution of the HPBALL cell line treated with ribociclib (LEE), as described for FIG. 1A. Data shown are mean±S.D. (n=6); *P<0.05 vs its vehicle controls, t-test.
FIG. 1D is a chart the percentage of S-G2-M cells in FIGS. 1B and 1C. IC50 is the concentration of an inhibitor where the response (here is the inhibition of proliferation) is reduced by half.
FIG. 1E is a bar graph summarizing the cell numbers of HPBALL cells treated with either GD with different doses or LEE (20 μM) for 6 days. Data shown are mean±S.D. (n=6); *P<0.05 vs vehicles (0) control, t-test.
HCl salt of 6-acetyl-5-methyl-2-((4-(piperazin-1-ylmethyl)thiazol-2-yl)amino)pyrido[2,3-d]pyrimidin-7(8H)-one (Compound GD) prepared in Example 1 was examined for its inhibitory activity in cancer cell lines and WT and CDK6^−/− mouse embryonic fibroblasts (MEFs) and stromal vascular fractions (SVFs). […]
as §1

[7] = tested on: mouse WT-MEFs; test: Cell cycle and cell number, WT-MEFs; format: cell-based
Method: FIG. 6A is a series of charts showing representative cell cycle profiles of mouse WT-MEFs treated with a vehicle (V), PD (0.5 μM), LEE (10 μM), or compound GD at 1, 5, and 10 μM for 6 days.
FIG. 6B is a histogram summarizing the cell cycle distribution in FIG. 6A. Data shown are mean±S.D. (n=6); *P<0.05 vs vehicle control, t-test.
FIG. 6C is a chart showing the percentage of S-G2-M cells in FIG. 6B.
FIG. 6D is a bar graph summarizing the cell number of WT-MEFs treated with PD (0.5 μM), LEE (10 μM), or compound GD at varying doses for 6 days. Data shown are mean±S.D. (n=6); *P<0.05 vs vehicle control, t-test.
as §2

[8] = tested on: human leukemia cell line T-ALL1 (with WT Notch1); test: Cell cycle (PI staining, S-G2-M cells) and cell number, T-ALL1; format: cell-based
Method: FIG. 2A is a series of charts showing representative cell cycle profiles of human leukemia cell line T-ALL1 (with WT Notch1) treated with a vehicle (V) (for palbociclib (PD) or compound GD), PD (0.5 μM), or compound GD at 1, 2.5, 5, 10, and 20 μM for 6 days.
FIG. 2B is a histogram summarizing the cell cycle distribution of the T-ALL1 cell line in FIG. 2A. Data shown are mean±S.D. (n=6); *P<0.05 vs its vehicle controls, t-test.
FIG. 2C is a chart showing the percentage of S-G2-M cells in samples in FIGS. 2A and 2B. […]
as §1

[9] = tested on: phosphorylated pRB at SER-780 in U251 cells; test: Immunoblot of phosphorylated pRB (SER-780), U251; format: cell-based
Method: FIG. 5B is an image of a representative immunoblot showing the levels of phosphorylated pRB at SER-780 in U251 cells following treatment of these cells with a vehicle, PD, or compound GD for 24 hours. Tubulin was used as loading control.
as §1

IC50 ([6]; Homo sapiens, 144 h, HPBALL, 6 days, read-out: IC50 (inhibition of proliferation, percentage of S-G2-M cells)): ~4000 nM
IC50 ([8]; Homo sapiens, TALL-1, 144 h, T-ALL1, 6 days, read-out: IC50 (percentage of S-G2-M cells, growth inhibition)): ~1100 nM
Compound: CC(=O)c1c(C)c2cnc(Nc3nc(CN4CCNCC4)cs3)nc2[nH]c1=O [Compound GD, 6-acetyl-5-methyl-2-((4-(piperazin-1-ylmethyl)thiazol-2-yl)amino)pyrido[2,3-d]pyrimidin-7(8H)-one]
Compound GD Efficacy ([1]; Cervical Cancer: Hela, WB: P-RB-780): Efficacious
pRB phosphorylation ([1]; cervical cancer cell line (Hela cells), 24 hours): inhibits pRB phosphorylation
proliferation of CDK6−/− SVFs [2]: little effect
Compound GD Efficacy [3]: No
proliferation of mouse WT SVFs [4]: inhibited proliferation
Compound GD Efficacy [5]: No
Compound GD Efficacy ([6]; Leukemic cells: HPBALL, PI Staining, and cell number counting): Efficacious
IC50 ([7]; 144 h, mouse WT-MEF, 6 days, read-out: IC50 (proliferation, percentage of S-G2-M cells)): ~1200 nM
fraction of dead cells (effect on cell viability) relative to PD ([7]; WT-MEFs, FIG. 6B, GD 10 μM vs PD 0.5 μM): smaller
Compound GD Efficacy ([8]; Leukemic cells: TALL1, PI Staining, and cell number counting): Efficacious
Compound GD Efficacy ([9]; Brain Tumor: U251, WB: P-RB-780): Efficacious
pRB phosphorylation ([9]; glioblastoma cell line U251, 24 hours): inhibits pRB phosphorylation
